# Measured values from US20260256792A1, “TREATMENT OF CHRONIC SPONTANEOUS URTICARIA BY ADMINISTERING (R)-2-[3-[4-AMINO-3-(2-FLUORO-4-PHENOXY-PHENYL)PYRAZOLO[3,4-D]PYRIMIDIN-1-YL]PIPERIDINE-1-CARBONYL]-4-METHYL-4-[4-(OXETAN-3-YL)PIPERAZIN-1-YL]PENT-2-ENENITRILE” (priority 2023, published 2026).
# Tested on: moderate-to-severe chronic spontaneous urticaria (CSU)
# Assay: Phase 2 CSU study: urticaria activity score over 7 days (UAS7)
# Format: in vivo, human
# Details: ITT
# From the text: The study comprises a 12 week, randomized, double-blind, placebo-controlled, multi-center, dose-ranging efficacy and safety phase, followed by a 40 week open label extension (OLE) phase (see FIG. 1). The study consists of three phases and an optional OLE phase. […] Clinically, CSU is characterized by the spontaneous and recurrent appearance of pruritic hives. The proposed primary endpoints were the UAS7 at Week 12 in EU and EU reference countries and the ISS7 in the US. Regardless of where a participant was from, all assessments were the same. The UAS7 score is a composite score containing both the HSS7 and the ISS7. This allowed a global assessment of the two key components of urticaria: hives and itch. […] The UAS is a validated PRO measure. […] The daily UAS scores range from 0 to 6 point/day. […] Patients were to complete the UAS using the e-diary. […] The following secondary endpoints were to be analyzed using the same approach as for the primary endpoint: • Change from baseline in UAS7 at Week 4 • Change from baseline in UAS7 at Week 12 (for US and US reference countries) • Change from baseline in ISS7 at Week 12 (except US and US reference countries) • Change from baseline in HSS7 at Week 12 The following responder secondary endpoints were to be analyzed using the Cochran-Mantel-Haenszel test adjusted by region: • Proportion of participants with UAS7<6 at Week 12 • Proportion of participants with UAS7=0 at Week 12 Participants who received selected prohibited medications and/or rescue medications were to be considered as non-responders for time points after the medication usage. For other participants, all available data including those collected during the off-treatment period were to be used to determine the responder/non-responder status. Missing data were to be considered as non-responders.
compound,measurement,setting,value
"CC(C)(C=C(C#N)C(=O)N1CCC[C@@H](n2nc(-c3ccc(Oc4ccccc4)cc3F)c3c(N)ncnc32)C1)N1CCN(C2COC2)CC1 [rilzabrutinib, (R)-2-[3-[4-amino-3-(2-fluoro-4-phenoxy-phenyl)pyrazolo[3,4-d]pyrimidin-1-yl]piperidine-1-carbonyl]-4-methyl-4-[4-(oxetan-3-yl)piperazin-1-yl]pent-2-enenitrile]","Responder n (%), UAS7 ≤6","400 mg QPM, Week 12",2 (5.3) n (%)
same,"Imputed non-responder n (%), UAS7 = 0","400 mg TID, Week 1",0 n (%)
same,"Imputed non-responder n (%), UAS7 ≤6","400 mg TID, Week 1",0 n (%)
same,"Non-responder n (%), UAS7 = 0","400 mg TID, Week 1",40 (97.6) n (%)
same,"Non-responder n (%), UAS7 ≤6","400 mg TID, Week 1",31 (75.6) n (%)
same,"OR for rilzabrutinib vs. placebo, UAS7 = 0","400 mg TID, Week 1",1.084
same,"RRD (%) for rilzabrutinib vs. placebo, UAS7 = 0","400 mg TID, Week 1",0.2 %
same,"RRD (%) for rilzabrutinib vs. placebo, UAS7 ≤6","400 mg TID, Week 1",17.6 %
same,"Responder n (%), UAS7 = 0","400 mg TID, Week 1",1 (2.4) n (%)
same,"Responder n (%), UAS7 ≤6","400 mg TID, Week 1",10 (24.4) n (%)
same,"Imputed non-responder n (%), UAS7 = 0","400 mg TID, Week 2",0 n (%)
same,"Imputed non-responder n (%), UAS7 ≤6","400 mg TID, Week 2",0 n (%)
same,"Non-responder n (%), UAS7 = 0","400 mg TID, Week 2",35 (85.4) n (%)
same,"Non-responder n (%), UAS7 ≤6","400 mg TID, Week 2",30 (73.2) n (%)
same,"OR for rilzabrutinib vs. placebo, UAS7 = 0","400 mg TID, Week 2",6.522
same,"OR for rilzabrutinib vs. placebo, UAS7 ≤6","400 mg TID, Week 2",6.049
same,"RRD (%) for rilzabrutinib vs. placebo, UAS7 = 0","400 mg TID, Week 2",11.0 %
same,"RRD (%) for rilzabrutinib vs. placebo, UAS7 ≤6","400 mg TID, Week 2",19.4 %
same,"Responder n (%), UAS7 = 0","400 mg TID, Week 2",6 (14.6) n (%)
same,"Responder n (%), UAS7 ≤6","400 mg TID, Week 2",11 (26.8) n (%)
same,"Imputed non-responder n (%), UAS7 = 0","400 mg TID, Week 3",0 n (%)
same,"Imputed non-responder n (%), UAS7 ≤6","400 mg TID, Week 3",0 n (%)
same,"Non-responder n (%), UAS7 = 0","400 mg TID, Week 3",37 (90.2) n (%)
same,"Non-responder n (%), UAS7 ≤6","400 mg TID, Week 3",30 (73.2) n (%)
same,"OR for rilzabrutinib vs. placebo, UAS7 = 0","400 mg TID, Week 3",4.480
same,"OR for rilzabrutinib vs. placebo, UAS7 ≤6","400 mg TID, Week 3",3.055
same,"RRD (%) for rilzabrutinib vs. placebo, UAS7 = 0","400 mg TID, Week 3",6.9 %
same,"RRD (%) for rilzabrutinib vs. placebo, UAS7 ≤6","400 mg TID, Week 3",14.9 %
same,"Responder n (%), UAS7 = 0","400 mg TID, Week 3",4 (9.8) n (%)
same,"Responder n (%), UAS7 ≤6","400 mg TID, Week 3",11 (26.8) n (%)
same,"Imputed non-responder n (%), UAS7 = 0","400 mg TID, Week 4",3 (7.3) n (%)
same,"Imputed non-responder n (%), UAS7 ≤6","400 mg TID, Week 4",3 (7.3) n (%)
same,"Non-responder n (%), UAS7 = 0","400 mg TID, Week 4",37 (90.2) n (%)
same,"Non-responder n (%), UAS7 ≤6","400 mg TID, Week 4",34 (82.9) n (%)
same,"OR for rilzabrutinib vs. placebo, UAS7 = 0","400 mg TID, Week 4",1.867
same,"OR for rilzabrutinib vs. placebo, UAS7 ≤6","400 mg TID, Week 4",1.217
same,"RRD (%) for rilzabrutinib vs. placebo, UAS7 = 0","400 mg TID, Week 4",4.0 %
same,"RRD (%) for rilzabrutinib vs. placebo, UAS7 ≤6","400 mg TID, Week 4",2.4 %
same,"Responder n (%), UAS7 = 0","400 mg TID, Week 4",4 (9.8) n (%)
same,"Responder n (%), UAS7 ≤6","400 mg TID, Week 4",7 (17.1) n (%)
same,"Imputed non-responder n (%), UAS7 = 0","400 mg TID, Week 5",3 (7.3) n (%)
same,"Imputed non-responder n (%), UAS7 ≤6","400 mg TID, Week 5",3 (7.3) n (%)
same,"Non-responder n (%), UAS7 = 0","400 mg TID, Week 5",34 (82.9) n (%)
same,"Non-responder n (%), UAS7 ≤6","400 mg TID, Week 5",27 (65.9) n (%)
same,"OR for rilzabrutinib vs. placebo, UAS7 = 0","400 mg TID, Week 5",7.606
same,"OR for rilzabrutinib vs. placebo, UAS7 ≤6","400 mg TID, Week 5",8.858
same,"RRD (%) for rilzabrutinib vs. placebo, UAS7 = 0","400 mg TID, Week 5",13.2 %
same,"RRD (%) for rilzabrutinib vs. placebo, UAS7 ≤6","400 mg TID, Week 5",26.0 %
same,"Responder n (%), UAS7 = 0","400 mg TID, Week 5",7 (17.1) n (%)
same,"Responder n (%), UAS7 ≤6","400 mg TID, Week 5",14 (34.1) n (%)
same,"Imputed non-responder n (%), UAS7 = 0","400 mg TID, Week 6",5 (12.2) n (%)
same,"Imputed non-responder n (%), UAS7 ≤6","400 mg TID, Week 6",5 (12.2) n (%)
same,"Non-responder n (%), UAS7 = 0","400 mg TID, Week 6",32 (78.0) n (%)
same,"Non-responder n (%), UAS7 ≤6","400 mg TID, Week 6",28 (68.3) n (%)
same,"OR for rilzabrutinib vs. placebo, UAS7 = 0","400 mg TID, Week 6",9.649
same,"OR for rilzabrutinib vs. placebo, UAS7 ≤6","400 mg TID, Week 6",2.273
same,"RRD (%) for rilzabrutinib vs. placebo, UAS7 = 0","400 mg TID, Week 6",17.2 %
same,"RRD (%) for rilzabrutinib vs. placebo, UAS7 ≤6","400 mg TID, Week 6",14.2 %
same,"Responder n (%), UAS7 = 0","400 mg TID, Week 6",9 (22.0) n (%)
same,"Responder n (%), UAS7 ≤6","400 mg TID, Week 6",13 (31.7) n (%)
same,"Imputed non-responder n (%), UAS7 = 0","400 mg TID, Week 7",6 (14.6) n (%)
same,"Imputed non-responder n (%), UAS7 ≤6","400 mg TID, Week 7",6 (14.6) n (%)
same,"Non-responder n (%), UAS7 = 0","400 mg TID, Week 7",37 (90.2) n (%)
same,"Non-responder n (%), UAS7 ≤6","400 mg TID, Week 7",30 (73.2) n (%)
same,"OR for rilzabrutinib vs. placebo, UAS7 = 0","400 mg TID, Week 7",4.480
same,"OR for rilzabrutinib vs. placebo, UAS7 ≤6","400 mg TID, Week 7",3.247
